Measurements taken from US8877748B2, “Heterocyclic fused anthraquinone derivatives, manufacturing method and pharmaceutical composition using thereof” (National Defense Medical Center, priority 2012, dated 2014).

Columns and labels:
NCI-H522 = experiment: NCI one-dose screening, non-small cell lung cancer NCI-H522; assay type: cell-based, human; conditions: 10 μM
SNB-75 = experiment: NCI one-dose screening, CNS cancer SNB-75; assay type: cell-based, human; conditions: 10 μM
ACHN = experiment: NCI one-dose screening, renal cancer ACHN; assay type: cell-based, human; conditions: 10 μM
DU145 = experiment: NCI one-dose screening, prostate cancer DU145; assay type: cell-based, human; conditions: 10 μM
PRMI-8226 cell line = experiment: NCI one-dose screening, leukemia PRMI-8226; assay type: cell-based, human; conditions: 10 μM
K562cell line = experiment: NCI one-dose screening, leukemia K562; assay type: cell-based, human; conditions: 10 μM
SK-MEL-2 = experiment: NCI one-dose screening, melanoma SK-MEL-2; assay type: cell-based, human; conditions: 10 μM
OVCAR-5 = experiment: NCI one-dose screening, ovarian cancer OVCAR-5; assay type: cell-based, human; conditions: 10 μM
KM12 = experiment: NCI one-dose screening, colon cancer KM12; assay type: cell-based, human; conditions: 10 μM
MCF7 = experiment: NCI one-dose screening, breast cancer MCF7; assay type: cell-based, human; conditions: 10 μM
SN12C = experiment: NCI one-dose screening, renal cancer SN12C; assay type: cell-based, human; conditions: 10 μM
COLO 205 = experiment: NCI one-dose screening, colon cancer COLO 205; assay type: cell-based, human; conditions: 10 μM
A549/ATCC = experiment: NCI one-dose screening, non-small cell lung cancer A549/ATCC; assay type: cell-based, human; conditions: 10 μM
HL-60, TB = experiment: NCI one-dose screening, leukemia HL-60, TB; assay type: cell-based, human; conditions: 10 μM
CAKI-1 = experiment: NCI one-dose screening, renal cancer CAKI-1; assay type: cell-based, human; conditions: 10 μM
MDA, -MB-435 = experiment: NCI one-dose screening, breast cancer MDA, -MB-435; assay type: cell-based, human; conditions: 10 μM; listed under Melanoma
SF-539 = experiment: NCI one-dose screening, CNS cancer SF-539; assay type: cell-based, human; conditions: 10 μM
EKVX = experiment: NCI one-dose screening, non-small cell lung cancer EKVX; assay type: cell-based, human; conditions: 10 μM
HT29 = experiment: NCI one-dose screening, colon cancer HT29; assay type: cell-based, human; conditions: 10 μM
U251 = experiment: NCI one-dose screening, CNS cancer U251; assay type: cell-based, human; conditions: 10 μM
OVCAR-3 = experiment: NCI one-dose screening, ovarian cancer OVCAR-3; assay type: cell-based, human; conditions: 10 μM
BT-549 = experiment: NCI one-dose screening, breast cancer BT-549; assay type: cell-based, human; conditions: 10 μM
OVCAR-8 = experiment: NCI one-dose screening, ovarian cancer OVCAR-8; assay type: cell-based, human; conditions: 10 μM
TK-10 = experiment: NCI one-dose screening, renal cancer TK-10; assay type: cell-based, human; conditions: 10 μM
SNB-19 = experiment: NCI one-dose screening, CNS cancer SNB-19; assay type: cell-based, human; conditions: 10 μM
[1] = test system: PC-3 prostate cancer cell line; experiment: SRB assay cell viability, PC-3 prostate cancer cell line; assay type: cell-based, human; conditions: Homo sapiens, PC-3 prostate cancer cell line, Table II prints no unit, μM printed, read-out: SRB assay: 50% inhibition of cancer cell proliferation of sample concentration (IC50) of PC-3 prostate cancer cell line
HCT-15 = experiment: NCI one-dose screening, colon cancer HCT-15; assay type: cell-based, human; conditions: 10 μM
SK-OV-3 = experiment: NCI one-dose screening, ovarian cancer SK-OV-3; assay type: cell-based, human; conditions: 10 μM
HS 578-T = experiment: NCI one-dose screening, breast cancer HS 578-T; assay type: cell-based, human; conditions: 10 μM; Breast cancer
NCI-H23 = experiment: NCI one-dose screening, non-small cell lung cancer NCI-H23; assay type: cell-based, human; conditions: 10 μM
RXF, 393 = experiment: NCI one-dose screening, renal cancer RXF, 393; assay type: cell-based, human; conditions: 10 μM
NCI-H226 = experiment: NCI one-dose screening, non-small cell lung cancer NCI-H226; assay type: cell-based, human; conditions: 10 μM
T-47D = experiment: NCI one-dose screening, breast cancer T-47D; assay type: cell-based, human; conditions: 10 μM
UACC-62 = experiment: NCI one-dose screening, melanoma UACC-62; assay type: cell-based, human; conditions: 10 μM
HCC-2998 = experiment: NCI one-dose screening, colon cancer HCC-2998; assay type: cell-based, human; conditions: 10 μM
HOP-92 = experiment: NCI one-dose screening, non-small cell lung cancer HOP-92; assay type: cell-based, human; conditions: 10 μM
UO-31 = experiment: NCI one-dose screening, renal cancer UO-31; assay type: cell-based, human; conditions: 10 μM
HOP-62 = experiment: NCI one-dose screening, non-small cell lung cancer HOP-62; assay type: cell-based, human; conditions: 10 μM
786-O = experiment: NCI one-dose screening, renal cancer 786-O; assay type: cell-based, human; conditions: 10 μM
SR = experiment: NCI one-dose screening, leukemia SR; assay type: cell-based, human; conditions: 10 μM
SK-MEL-28 = experiment: NCI one-dose screening, melanoma SK-MEL-28; assay type: cell-based, human; conditions: 10 μM
human tumor cell lines = experiment: NCI one-dose screening, Mean / Delta / Range of growth percent over all tested cell lines; assay type: cell-based; conditions: 10 μM
SF-295 = experiment: NCI one-dose screening, CNS cancer SF-295; assay type: cell-based, human; conditions: 10 μM
UACC-257 = experiment: NCI one-dose screening, melanoma UACC-257; assay type: cell-based, human; conditions: 10 μM
[2] = NCI one-dose screening, renal cancer A489; assay type: cell-based, human; conditions: 10 μM
IGROV1 = experiment: NCI one-dose screening, ovarian cancer IGROV1; assay type: cell-based, human; conditions: 10 μM
NCl/ADR-RES = experiment: NCI one-dose screening, breast cancer NCl/ADR-RES; assay type: cell-based, human; conditions: 10 μM; listed under Ovarian cancer
HCT-116 = experiment: NCI one-dose screening, colon cancer HCT-116; assay type: cell-based, human; conditions: 10 μM
PC-3 = experiment: NCI one-dose screening, prostate cancer PC-3; assay type: cell-based, human; conditions: 10 μM
M14 = experiment: NCI one-dose screening, melanoma M14; assay type: cell-based, human; conditions: 10 μM
SK-MEL-5 = experiment: NCI one-dose screening, melanoma SK-MEL-5; assay type: cell-based, human; conditions: 10 μM
NCI-H460 = experiment: NCI one-dose screening, non-small cell lung cancer NCI-H460; assay type: cell-based, human; conditions: 10 μM
SF-268 = experiment: NCI one-dose screening, CNS cancer SF-268; assay type: cell-based, human; conditions: 10 μM
MDA-MB-468 = experiment: NCI one-dose screening, breast cancer MDA-MB-468; assay type: cell-based, human; conditions: 10 μM
MALME-3M = experiment: NCI one-dose screening, melanoma MALME-3M; assay type: cell-based, human; conditions: 10 μM
MDA-MB-231/ATCC = experiment: NCI one-dose screening, breast cancer MDA-MB-231/ATCC; assay type: cell-based, human; conditions: 10 μM
LOX IMVI = experiment: NCI one-dose screening, melanoma LOX IMVI; assay type: cell-based, human; conditions: 10 μM
MOLT-4 = experiment: NCI one-dose screening, leukemia MOLT-4; assay type: cell-based, human; conditions: 10 μM

## O=C1c2ccccc2C(=O)c2c1cc(Sc1ccc(F)cc1F)c1nsnc21 [C39, 4-(2,4-difluorophenylthio)anthra[2,1-c] [1,2,5]thiadiazol-6,11-dione]
NCI-H522
  Growth Percent NCI-H522: 61.06%
SNB-75
  Growth Percent SNB-75: 42.86%
ACHN
  Growth Percent ACHN: 34.93%
DU145
  Growth Percent DU145: 41.32%
PRMI-8226 cell line
  Growth Percent RPMI-8226: 6.29%
K562cell line
  Growth Percent K562: −21.06%
SK-MEL-2
  Growth Percent SK-MEL-2: 51.79%
OVCAR-5
  Growth Percent OVCAR-5: 110.21%
KM12
  Growth Percent KM12: 51.79%
MCF7
  Growth Percent MCF7: 6.58%
SN12C
  Growth Percent SN12C: 9.12%
COLO 205
  Growth Percent COLO 205: 104.04%
A549/ATCC
  Growth Percent A549/ATCC: 111.54%
HL-60, TB
  Growth Percent HL-60(TB): −37.71%
CAKI-1
  Growth Percent CAKI-1: 24.02%
MDA, -MB-435
  Growth Percent MDA-MB-435: −85.27%
SF-539
  Growth Percent SF-539: 58.79%
EKVX
  Growth Percent EKVX: 98.12%
HT29
  Growth Percent HT29: 102.45%
U251
  Growth Percent U251: 34.47%
OVCAR-3
  Growth Percent OVCAR-3: −52.32%
BT-549
  Growth Percent BT-549: 66.40- Percent
OVCAR-8
  Growth Percent OVCAR-8: 0.32%
TK-10
  Growth Percent TK-10: 111.93%
SNB-19
  Growth Percent SNB-19: 87.35%
[1]
  IC50: 14.8 µM
HCT-15
  Growth Percent HCT-15: 45.84%
SK-OV-3
  Growth Percent SK-OV-3: 92.58%
HS 578-T
  Growth Percent HS 578T: 50.08%
NCI-H23
  Growth Percent NCI-H23: 9.53%
RXF, 393
  Growth Percent RXF 393: 36.69%
NCI-H226
  Growth Percent NCI-H226: 88.85%
T-47D
  Growth Percent T-47D: −28.61%
UACC-62
  Growth Percent UACC-62: 53.27%
HCC-2998
  Growth Percent HCC-2998: 107.02%
HOP-92
  Growth Percent HOP-92: −18.39%
UO-31
  Growth Percent UO-31: 70.30%
HOP-62
  Growth Percent HOP-62: 58.46%
786-O
  Growth Percent 786-0: 3.74%
SR
  Growth Percent SR: 0.20%
SK-MEL-28
  Growth Percent SK-MEL-28: 79.45%
Human tumor cell lines; delta over all cell lines
  Growth Percent Delta: 119.50%
Human tumor cell lines; mean over all cell lines
  Growth Percent Mean: 32.54%
Human tumor cell lines; range over all cell lines
  Growth Percent Range: 198.89%
SF-295
  Growth Percent SF-295: 68.77%
UACC-257
  Growth Percent UACC-257: 43.93%
[2]
  Growth Percent A498: 50.80%
IGROV1
  Growth Percent IGROV1: 975%
NCl/ADR-RES
  Growth Percent NCI/ADR-RES: −26.24%
HCT-116
  Growth Percent HCT-116: −63.06%
PC-3
  Growth Percent PC-3: −9.72%
M14
  Growth Percent M14: 53.77%
SK-MEL-5
  Growth Percent SK-MEL-5: 48.53%
NCI-H460
  Growth Percent NCI-H460: 83.60%
SF-268
  Growth Percent SF-268: 8.47%
MDA-MB-468
  Growth Percent MDA-MB-468: −86.96%
MALME-3M
  Growth Percent MALME-3M: 39.46%
MDA-MB-231/ATCC
  Growth Percent MDA-MB-231/ATCC: −9.73%
LOX IMVI
  Growth Percent LOX IMVI: −42.03%
MOLT-4
  Growth Percent MOLT-4: −41.57%
